Experimental findings from PubChem BioAssay (NCI) are described below.

Test systems include COLO 205 colon; HOP-62 NSCLC; MDA-MB-231 breast; NCI-H460 lung; OVCAR-4 ovarian; OVCAR-5 ovarian; RPMI-8226 leukemia; TK-10 renal.
Common to all, as to assay: NCI-60 cell line screen, 48 h

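Values below derive from 48-hour exposures of cells grown in 96-well plates, with endpoints linearly interpolated between the two concentrations bracketing the appropriate inhibition level. GI50: concentration for 50% inhibition of growth. At the TGI there is no net growth.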

Regarding `CCCCn1c(=O)[nH]c(N)c([C@@H]2c3c([nH]c(=O)n(CCCC)c3=O)Oc3ccc4ccccc4c32)c1=O`, the GI50 with COLO 205 colon was 2 µM; in the experiment on HOP-62 NSCLC it was 1.5 µM; in the experiment on MDA-MB-231 breast it was 1.85 µM; with NCI-H460 lung, 2.19 µM; with OVCAR-4 ovarian it was 2.26 µM; in the experiment with OVCAR-5 ovarian it was 3.63 µM. Moreover, the GI50 is 3.48 µM in the experiment on RPMI-8226 leukemia and 2.95 µM in the experiment with TK-10 renal. The TGI stood at 4.03 µM with COLO 205 colon; 4.72 µM with HOP-62 NSCLC; 4.58 µM with MDA-MB-231 breast; 5.05 µM with NCI-H460 lung; 10.8 µM in the experiment with OVCAR-4 ovarian; 13.8 µM with OVCAR-5 ovarian. For the same compound, the TGI in the experiment with RPMI-8226 leukemia turned out to be 13.5 µM; in the experiment on TK-10 renal, 7.05 µM.

With `C=CCc1cccc(C=O)c1O`, the GI50 in the experiment on COLO 205 colon is greater than 100 µM; in the experiment on HOP-62 NSCLC it was greater than 100 µM; in the experiment with MDA-MB-231 breast, 19.1 µM; with NCI-H460 lung it was greater than 100 µM; with OVCAR-4 ovarian, 21.7 µM; with OVCAR-5 ovarian it was greater than 100 µM. In addition, the GI50 in the experiment on RPMI-8226 leukemia is 7.72 µM; with TK-10 renal, greater than 100 µM. Moreover, the TGI in the experiment with COLO 205 colon, in the experiment with HOP-62 NSCLC, in the experiment on MDA-MB-231 breast, in the experiment on NCI-H460 lung, in the experiment with OVCAR-4 ovarian and in the experiment with OVCAR-5 ovarian was greater than 100 µM throughout. Besides, the TGI with RPMI-8226 leukemia and in the experiment with TK-10 renal was greater than 100 µM each time.

Consider `CC(C)(C)CC(C)(C)c1ccc(OCCO)cc1`, for which the GI50 is 4.69 µg/mL in the experiment on COLO 205 colon; 3.75 µg/mL with HOP-62 NSCLC; 4.43 µg/mL in the experiment on MDA-MB-231 breast; 2.95 µg/mL in the experiment with NCI-H460 lung; 1.5 µg/mL in the experiment with OVCAR-4 ovarian; 11.9 µg/mL with OVCAR-5 ovarian. Besides, the GI50 with RPMI-8226 leukemia was 1.9 µg/mL; with TK-10 renal, 10.6 µg/mL. The TGI came out at 15.4 µg/mL with COLO 205 colon; 16.3 µg/mL in the experiment on HOP-62 NSCLC; 15.7 µg/mL with MDA-MB-231 breast; 16.4 µg/mL in the experiment with NCI-H460 lung; 21.5 µg/mL in the experiment on OVCAR-4 ovarian; 27.5 µg/mL in the experiment with OVCAR-5 ovarian. Besides, the figures for the TGI in the experiment on RPMI-8226 leukemia and in the experiment with TK-10 renal were 19.5 µg/mL and 33 µg/mL, respectively.

For the compound `NS(=O)(=O)c1ccc(N(/C=C/C(=O)C(F)(F)F)CC(=O)c2ccc(F)cc2)cc1`, the GI50 in the experiment on COLO 205 colon is 20.5 µM; in the experiment on HOP-62 NSCLC, 65.4 µM; in the experiment on MDA-MB-231 breast it was 20.9 µM; in the experiment on NCI-H460 lung, 28.1 µM; in the experiment on OVCAR-4 ovarian, 57.1 µM; with OVCAR-5 ovarian, 28.8 µM. The GI50 is 19.5 µM in the experiment with RPMI-8226 leukemia and 25.9 µM with TK-10 renal. In addition, the TGI in the experiment on COLO 205 colon was 41.6 µM; with HOP-62 NSCLC, greater than 100 µM; in the experiment on MDA-MB-231 breast, 42 µM; with NCI-H460 lung, greater than 100 µM; in the experiment with OVCAR-4 ovarian it was greater than 100 µM; in the experiment with OVCAR-5 ovarian, 74.4 µM. In addition, the figures for the TGI with RPMI-8226 leukemia and in the experiment on TK-10 renal were 55.8 µM and greater than 100 µM, respectively.

With `Cc1cc(I)cc(CNCCN(C)C)c1O`, the GI50 in the experiment on COLO 205 colon is greater than 100 µM; in the experiment with HOP-62 NSCLC it was greater than 100 µM; with MDA-MB-231 breast, greater than 59.5 µM; in the experiment with NCI-H460 lung it was 44.1 µM; with OVCAR-4 ovarian, greater than 93.1 µM; in the experiment with OVCAR-5 ovarian, greater than 100 µM. In addition, the GI50 in the experiment with RPMI-8226 leukemia is 35.2 µM; with TK-10 renal, greater than 91.6 µM. For the same compound, the TGI with COLO 205 colon, in the experiment with HOP-62 NSCLC, in the experiment with MDA-MB-231 breast, with NCI-H460 lung, in the experiment with OVCAR-4 ovarian and in the experiment on OVCAR-5 ovarian was greater than 100 µM in each case. Besides, the TGI in the experiment on RPMI-8226 leukemia and with TK-10 renal was greater than 100 µM throughout.

Take `COc1cc2cc(NCc3cccc(Cl)c3)nc(C)c2cc1OC`: the GI50 with COLO 205 colon was 1.62 µM; with HOP-62 NSCLC it was 0.862 µM; with MDA-MB-231 breast it was 1.18 µM; with NCI-H460 lung, 1.27 µM; in the experiment on OVCAR-4 ovarian, 1.83 µM; in the experiment with OVCAR-5 ovarian it was 1.5 µM. In addition, the GI50 in the experiment on RPMI-8226 leukemia is 0.539 µM; in the experiment with TK-10 renal, 4.15 µM. Also, the TGI in the experiment with COLO 205 colon was determined as 9.3 µM; with HOP-62 NSCLC it was 22.2 µM; with MDA-MB-231 breast it was 16.6 µM; with NCI-H460 lung it was 14.6 µM; in the experiment with OVCAR-4 ovarian it was 25.4 µM; in the experiment on OVCAR-5 ovarian, 25.4 µM. Also, the results for the TGI with RPMI-8226 leukemia and in the experiment on TK-10 renal were 23.4 µM and 36.6 µM, respectively.

With `N#CC1=C(N)Oc2c(sc3c(Br)cccc23)C1c1ccc([N+](=O)[O-])cc1` (centres undefined), the GI50 in the experiment on COLO 205 colon was 0.224 µM; with HOP-62 NSCLC, 0.123 µM; in the experiment with MDA-MB-231 breast, 0.514 µM; with NCI-H460 lung, 0.0655 µM; in the experiment with OVCAR-4 ovarian, 0.9 µM; in the experiment with OVCAR-5 ovarian, 1.4 µM. Moreover, the GI50 is 0.116 µM with RPMI-8226 leukemia and 2.32 µM in the experiment on TK-10 renal. The TGI stood at 1.14 µM in the experiment with COLO 205 colon; 14 µM in the experiment on HOP-62 NSCLC; 9.67 µM with MDA-MB-231 breast; 10.4 µM in the experiment with NCI-H460 lung; 18.7 µM with OVCAR-4 ovarian; 16.4 µM with OVCAR-5 ovarian. Further, the TGI with RPMI-8226 leukemia worked out at 6.49 µM; in the experiment on TK-10 renal, 20 µM.

On to `COc1cc(/C=C/C(=O)c2cccc(-n3cc(-c4ccccc4)[nH]c3=O)c2)cc(OC)c1OC`, for which the GI50 is 1.51 µM in the experiment with COLO 205 colon; 4.12 µM in the experiment with HOP-62 NSCLC; 2.17 µM in the experiment with MDA-MB-231 breast; 1.4 µM in the experiment on NCI-H460 lung; 1.88 µM in the experiment on OVCAR-4 ovarian; 1.88 µM with OVCAR-5 ovarian. The GI50 with RPMI-8226 leukemia is 0.626 µM; in the experiment on TK-10 renal it was 3.02 µM. Moreover, the TGI with COLO 205 colon came to 2.83 µM; in the experiment on HOP-62 NSCLC it was 13.6 µM; in the experiment with MDA-MB-231 breast it was 6.18 µM; with NCI-H460 lung, 2.69 µM; in the experiment on OVCAR-4 ovarian, 5.07 µM; in the experiment on OVCAR-5 ovarian, 3.74 µM. Further, the TGI in the experiment with RPMI-8226 leukemia is greater than 100 µM; in the experiment on TK-10 renal, 9.35 µM.

As for `CCC(=C(c1ccc(OCCN2CCCCC2)cc1)c1ccc(OCCN2CCCCC2)cc1)c1ccc(Cl)cc1`, the GI50 was 3.59 µM in the experiment with COLO 205 colon; greater than 16.7 µM in the experiment with HOP-62 NSCLC; 5.35 µM in the experiment with MDA-MB-231 breast; 5.7 µM in the experiment with NCI-H460 lung; greater than 16.7 µM in the experiment with OVCAR-4 ovarian; greater than 16.7 µM with OVCAR-5 ovarian. Besides, the GI50 in the experiment on RPMI-8226 leukemia is 3.6 µM; in the experiment on TK-10 renal it was greater than 16.7 µM. Moreover, the TGI with COLO 205 colon is 9.01 µM; in the experiment with HOP-62 NSCLC it was greater than 16.7 µM; with MDA-MB-231 breast it was greater than 16.7 µM; with NCI-H460 lung it was greater than 16.7 µM; in the experiment on OVCAR-4 ovarian, greater than 16.7 µM; with OVCAR-5 ovarian it was greater than 16.7 µM. Moreover, the TGI with RPMI-8226 leukemia and in the experiment with TK-10 renal was greater than 16.7 µM each time.
